Key:
Format in all cases: in vivo
[1] = system: foxtail, green (green foxtail, Setaria viridis); experiment: Test A postemergence, foxtail, green; details: Setaria, post-emergence, 240 h, 0 to 100 scale (0 no effect, 100 complete control), read-out: Plant response rating, Foxtail, Green; for pest or weed control at 125 g/ha: 125 g ai/ha; for pest or weed control at 500 g/ha: 500 g ai/ha; for pest or weed control at 31 g/ha: 31 g ai/ha
From the text: (§1) Seeds of plant species selected from barnyardgrass (Echinochloa crus-galli), kochia (Kochia scoparia), ragweed (common ragweed, Ambrosia elatior), ryegrass, Italian (Italian ryegrass, Lolium multiflorum), foxtail, giant (giant foxtail, Setaria faberii), foxtail, green (green foxtail, Setaria viridis) and pigweed (Amaranthus retroflexus) were planted into a blend of loam soil and sand and treated preemergence with a directed soil spray using test chemicals formulated in a non-phytotoxic solvent mixture which included a surfactant.
(§2) At the same time, plants selected from these weed species and also wheat (Triticum aestivum), corn (Zea mays), blackgrass (Alopecurus myosuroides), and galium (catchweed bedstraw, Galium aparine) were planted in pots containing the same blend of loam soil and sand and treated with postemergence applications of test chemicals formulated in the same manner. Plants ranged in height from 2 to 10 cm and were in the one- to two-leaf stage for the postemergence treatment. Treated plants and untreated controls were maintained in a greenhouse for approximately 10 days, after which time all treated plants were compared to untreated controls and visually evaluated for injury. […] A dash (-) response means no test result.

[2] = system: foxtail, green (green foxtail, Setaria viridis); experiment: Test A preemergence, foxtail, green; details: Setaria, pre-emergence, 240 h, 0 to 100 scale (0 no effect, 100 complete control), read-out: Plant response rating, Foxtail, Green; for pest or weed control at 125 g/ha: 125 g ai/ha; for pest or weed control at 500 g/ha: 500 g ai/ha; for pest or weed control at 31 g/ha: 31 g ai/ha
From the text: as §1, §2

[3] = system: foxtail, giant (giant foxtail, Setaria faberii); experiment: Test A postemergence, foxtail, giant; details: Setaria faberi, post-emergence, 240 h, 0 to 100 scale (0 no effect, 100 complete control), read-out: Plant response rating, Foxtail, Giant; for pest or weed control at 31 g/ha: 31 g ai/ha; for pest or weed control at 125 g/ha: 125 g ai/ha
From the text: as §1, §2

SMILES	pest or weed control at 125 g/ha [1] [%]	pest or weed control at 500 g/ha [1] [%]	pest or weed control at 125 g/ha [2] [%]	pest or weed control at 500 g/ha [2] [%]	pest or weed control at 31 g/ha [1] [%]	pest or weed control at 31 g/ha [2] [%]	pest or weed control at 31 g/ha [3] [%]	pest or weed control at 125 g/ha [3] [%]
O=C1OC(CCCC(F)(F)F)c2c(Oc3ncc(Cl)cn3)cccc21 (stereo not drawn) [Compound 1, 4-[(5-Chloro-2-pyrimidinyl)oxy]-3-(4,4,4-trifluorobutyl)-1(3H)-isobenzofuranone]	90	100	100	100				
O=C1O[C@@H](CCCC(F)(F)F)c2c(Oc3ncc(Cl)cn3)cccc21 [Compound 2, (3S)-4-[(5-Chloro-2-pyrimidinyl)oxy]-3-(4,4,4-trifluorobutyl)-1-(3H)-isobenzofuranone]	10		30		0	0		
O=C1O[C@H](CCCC(F)(F)F)c2c(Oc3ncc(Cl)cn3)cccc21 [Compound 3, (3R)-4-[(5-Chloro-2-pyrimidinyl)oxy]-3-(4,4,4-trifluorobutyl)-1-(3H)-isobenzofuranone]	100		100		40	100		
O=C1OC(CCC(F)(F)F)c2c(Oc3ncc(Cl)cn3)cccc21 (stereo not drawn) [Compound 4, 4-[(5-Chloro-2-pyrimidinyl)oxy]-3-(3,3,3-trifluoropropyl)-1(3H)-isobenzofuranone]	90		100		30	100		
O=C1COC(CCCC(F)(F)F)c2c(Oc3ncc(Cl)cn3)cccc21 (stereo not drawn) [Compound 5, 8-[(5-Chloro-2-pyrimidinyl)oxy]-1-(4,4,4-trifluorobutyl)-1H-2-benzopyran-4(3H)-one]	10		0		10	0		
FC(F)(F)CCCC1OCc2cccc(Oc3ncc(Cl)cn3)c21 (stereo not drawn) [Compound 7, 5-chloro-2-[[1,3-dihydro-3-(4,4,4-trifluorobutyl)-4-isobenzofuranyl]oxy]-pyrimidine]	90		100		30	80		
FC(F)(F)CCC1OCc2cccc(Oc3ncc(Cl)cn3)c21 (stereo not drawn) [Compound 8, 5-Chloro-2-[[1,3-dihydro-3-(3,3,3-trifluoropropyl)-4-isobenzofuranyl]oxy]pyrimidine]	70		100		20	80		
FC(F)(F)CCCC1CCc2cccc(Oc3ncc(Cl)cn3)c21 (stereo not drawn) [Compound 9, 5-Chloro-2-[[2,3-dihydro-3-(4,4,4-trifluorobutyl)-1H-inden-4-yl]oxy]pyrimidine]	60		100		20	70		
OC1CC(CCCC(F)(F)F)c2c(Oc3ncc(Cl)cn3)cccc21 (stereo not drawn) [Compound 10, 4-[(5-Chloro-2-pyrimidinyl)oxy]-2,3-dihydro-3-(4,4,4-trifluorobutyl)-1H-inden-1-ol]	50		90		10	60		
O=C1CC(CCC(F)(F)F)c2c(Oc3ncc(Cl)cn3)cccc21 (stereo not drawn) [Compound 11, 4-[(5-Chloro-2-pyrimidinyl)oxy]-2,3-dihydro-3-(3,3,3-trifluoropropyl)-1H-inden-1-one]	10		70		0	10		
CN1C(=O)c2cccc(Oc3ncc(Cl)cn3)c2C1CCCC(F)(F)F (stereo not drawn) [Compound 12, 4-[(5-Chloro-2-pyrimidinyl)oxy]-2,3-dihydro-2-methyl-3-(4,4,4-trifluorobutyl)-1H-isoindol-1-one]	10		0		0	0		
O=C1NC(CCCC(F)(F)F)c2c(Oc3ncc(Cl)cn3)cccc21 (stereo not drawn) [Compound 13, 4-[(5-Chloro-2-pyrimidinyl)oxy]-2,3-dihydro-3-(4,4,4-trifluorobutyl)-1H-isoindol-1-one]	0		0		0	0		
OC1(CCC(F)(F)F)CCc2cccc(Oc3ncc(Cl)cn3)c21 (stereo not drawn) [Compound 14, 7-[(5-Chloro-2-pyrimidinyl)oxy]-2,3-dihydro-1-(3,3,3-trifluoropropyl)-1H-inden-1-ol]	0	50	40	100				
FC(F)(F)CC[C@H]1OCc2cccc(Oc3ncc(Cl)cn3)c21 [Compound 20, 5-Chloro-2-[[(3R)-1,3-dihydro-3-(3,3,3-trifluoropropyl)-4-isobenzofuranyl]oxy]-pyrimidine]							50	90
FC(F)(F)CC[C@@H]1OCc2cccc(Oc3ncc(Cl)cn3)c21 [Compound 21, 5-Chloro-2-[[(3S)-1,3-dihydro-3-(3,3,3-trifluoropropyl)-4-isobenzofuranyl]oxy]-pyrimidine]							0	20
O=C1c2cccc(Oc3ncc(Cl)cn3)c2C1CCCC(F)(F)F (stereo not drawn) [Compound 22, 2-[(5-Chloro-2-pyrimidinyl)oxy]-8-(4,4,4-trifluorobutyl)bicyclo[4.2.0]octa-1,3,5-trien-7-one]							0	40
O=C1c2cccc(Oc3ncc(Cl)cn3)c2C1CCC(F)(F)F (stereo not drawn) [Compound 24, 2-[(5-Chloro-2-pyrimidinyl)oxy]-8-(3,3,3-trifluoropropyl)bicyclo[4.2.0]octa-1,3,5-trien-7-one]							0	50
O=C1OCC(CCC(F)(F)F)c2c(Oc3ncc(Cl)cn3)cccc21 (stereo not drawn) [Compound 25, 5-[(5-Chloro-2-pyrimidinyl)oxy]-3,4-dihydro-4-(3,3,3-trifluoropropyl)-1H-2-benzopyran-1-one]							0	30
O=C1OCc2cccc(Oc3ncc(Cl)cn3)c2C1CCCC(F)(F)F (stereo not drawn) [Compound 26, 5-[(5-Chloro-2-pyrimidinyl)oxy]-1,4-dihydro-4-(4,4,4-trifluorobutyl)-3H-2-benzopyran-3-one]							0	20
FC(F)(F)CCCC1OCCc2cccc(Oc3ncc(Cl)cn3)c21 (stereo not drawn) [Compound 27, 5-Chloro-2-[[3,4-dihydro-1-(4,4,4-trifluorobutyl)-1H-2-benzopyran-8-yl]oxy]pyrimidine]							10	30
O=C1OCc2cccc(Oc3ncc(Cl)cn3)c2C1CCC(F)(F)F (stereo not drawn) [Compound 29, 5-[(5-Chloro-2-pyrimidinyl)oxy]-1,4-dihydro-4-(3,3,3-trifluoropropyl)-3H-2-benzopyran-3-one]							0	10
O=C1CCC(CCCC(F)(F)F)c2c(Oc3ncc(Cl)cn3)cccc21 (stereo not drawn) [Compound 30, 5-[(5-Chloro-2-pyrimidinyl)oxy]-3,4-dihydro-4-(4,4,4-trifluorobutyl)-1(2H)-naphthalenone]							0	40
FC(F)(F)CCC1OCCc2cccc(Oc3ncc(Cl)cn3)c21 (stereo not drawn) [Compound 32, 5-Chloro-2-[[3,4-dihydro-1-(3,3,3-trifluoropropyl)-1H-2-benzopyran-8-yl]oxy]pyrimidine]							0	20
FC(F)(F)CCCC1COc2cccc(Oc3ncc(Cl)cn3)c21 (stereo not drawn) [Compound 33, 5-Chloro-2-[[2,3-dihydro-3-(4,4,4-trifluorobutyl)-4-benzofuranyl]oxy]pyrimidine]							20	20
O=C1OCc2cccc(Oc3ncc(Cl)cn3)c2C1CCCCC(F)(F)F (stereo not drawn) [Compound 34, 5-[(5-Chloro-2-pyrimidinyl)oxy]-1,4-dihydro-4-(5,5,5-trifluoropentyl)-3H-2-benzopyran-3-one]							0	20
FC(F)(F)CCC1COc2cccc(Oc3ncc(Cl)cn3)c21 (stereo not drawn) [Compound 36, 5-Chloro-2-[[2,3-dihydro-3-(3,3,3-trifluoropropyl)-4-benzofuranyl]oxy]pyrimidine]							0	20

From patent US11427549B2, “Pyrimidinyloxy benzo-fused compounds as herbicides” (FMC Corporation, priority 2017, dated 2022)
